11 compounds from ChEMBL document CHEMBL1201862, “PubChem BioAssay data set” (2004) can be followed below.

Among the test systems are SNB-75; HOP-92; HCT-15; NCI/ADR-RES; CCRF-CEM; KM12; TK-10; HCT-116; OVCAR-8; IGROV-1; HL-60; SF-268; SK-MEL-28; SNB-19; LOX IMVI; RXF 393; SF-295; CAKI-1; RPMI-8226; OVCAR-4.
What all share (experiment): inhibition of tumour cell growth, NCI panel, 48 h

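Assay format: 96-well plates, 48-hour exposure. GI50 is the concentration that inhibits growth by half.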 The source made the active and inactive calls. Rule as the data show it: active = GI50 up to about 1.1 µM and inactive = higher.

Turning to `CCc1nc(N)c2nc(-c3ccc(C#N)cc3)oc2n1`, the GI50 with SNB-75 is > 100 µM (inactive); with HOP-92, > 100 µM (inactive); with HCT-15, above 100 µM; with NCI/ADR-RES, > 100 µM (inactive); with CCRF-CEM, > 100 µM (inactive); with KM12, > 100 µM (inactive). For the same compound, the GI50 with TK-10 is > 100 µM (inactive); in the experiment with HCT-116 it was > 100 µM (inactive); in the experiment with OVCAR-8, > 100 µM (inactive); in the experiment with IGROV-1 it was > 100 µM (inactive); with HL-60, > 10 µM (inactive); in the experiment on SF-268, > 100 µM (inactive). For the same compound, the GI50 with SK-MEL-28, with SNB-19, in the experiment on LOX IMVI, in the experiment on RXF 393, with SF-295 and in the experiment with CAKI-1 was > 100 µM (inactive) each time. For the same compound, the GI50 in the experiment on RPMI-8226 was > 100 µM (inactive).

On to `CCCCCCCCC/C=C1\CC(CO)(COC(=O)c2ccccc2)OC1=O` (stereo not given), for which the GI50 with SNB-75 is 15.9 µM (inactive); in the experiment on HOP-92, 9.82 µM (inactive); in the experiment with HCT-15, 20.7 µM; in the experiment on NCI/ADR-RES, 22.6 µM (inactive); in the experiment with CCRF-CEM, 16.9 µM (inactive); in the experiment with KM12, 21.4 µM (inactive). Moreover, the GI50 was 18.6 µM (inactive) in the experiment with TK-10; 22.2 µM (inactive) with HCT-116; 35.1 µM (inactive) with OVCAR-4; 32.1 µM (inactive) with IGROV-1; 22.7 µM (inactive) in the experiment with SF-268; 16.7 µM (inactive) in the experiment with SK-MEL-28. The GI50 in the experiment with SNB-19 is 20.9 µM (inactive); with RXF 393, 21.1 µM (inactive); in the experiment with SF-295, 21.2 µM (inactive); in the experiment on CAKI-1 it was 19.4 µM (inactive).

Regarding `COC(=O)C(C/C=C(\C)c1ccccc1)C(C)=O` (stereo not given), the GI50 is 47.3 µM (inactive) with SNB-75; 17.1 µM (inactive) in the experiment on HOP-92; 66.1 µM in the experiment on HCT-15; 54.6 µM (inactive) in the experiment with NCI/ADR-RES; 40.9 µM (inactive) in the experiment on CCRF-CEM; 58.2 µM (inactive) in the experiment on KM12. The GI50 is 57.1 µM (inactive) in the experiment on HCT-116; 56 µM (inactive) in the experiment on OVCAR-4; > 100 µM (inactive) in the experiment on OVCAR-8; > 100 µM (inactive) in the experiment with IGROV-1; 21.4 µM (inactive) with HL-60; 97.3 µM (inactive) with SF-268. Further, the GI50 in the experiment on SK-MEL-28 was > 100 µM (inactive); with SNB-19, > 100 µM (inactive); in the experiment on LOX IMVI it was 68.2 µM (inactive); in the experiment with RXF 393, > 100 µM (inactive); in the experiment on SF-295, 18.4 µM (inactive); in the experiment with RPMI-8226, 27.2 µM (inactive).

For the compound `COc1cccc(-c2nc3c(C(=O)NCCN(C)C)cccc3[nH]2)c1`, the GI50 was 21.3 µM (inactive) in the experiment with SNB-75; 18.5 µM (inactive) in the experiment with HOP-92; 18.9 µM in the experiment on HCT-15; 18 µM (inactive) in the experiment on NCI/ADR-RES; 8.05 µM (inactive) in the experiment with CCRF-CEM; 20.8 µM (inactive) in the experiment with KM12. Further, the GI50 in the experiment on HCT-116 is 7.73 µM (inactive); with OVCAR-4 it was 26.3 µM (inactive); in the experiment on OVCAR-8 it was 15.7 µM (inactive); in the experiment on IGROV-1 it was 21.4 µM (inactive); in the experiment with HL-60, 15.7 µM (inactive); with SF-268, 13.2 µM (inactive). Besides, the GI50 in the experiment on SK-MEL-28 is 15.8 µM (inactive); in the experiment on SNB-19 it was 31.3 µM (inactive); in the experiment on LOX IMVI, 13.3 µM (inactive); with RXF 393, 20.7 µM (inactive); in the experiment with SF-295, 16.2 µM (inactive); in the experiment on CAKI-1 it was 16 µM (inactive). Also, the GI50 in the experiment on RPMI-8226 is 13.2 µM (inactive).

For the compound `CC1=C(C#N)c2nc3ccccc3n2C(=O)C1(C)CCO` (stereo not given), the GI50 is > 100 µM (inactive) with SNB-75; > 100 µM (inactive) with HOP-92; above 100 µM in the experiment on HCT-15; > 100 µM (inactive) with NCI/ADR-RES; > 100 µM (inactive) with CCRF-CEM; > 100 µM (inactive) in the experiment with TK-10. The GI50 with HCT-116, in the experiment with OVCAR-4, in the experiment with OVCAR-8, in the experiment with IGROV-1, in the experiment on HL-60 and in the experiment on SF-268 was > 100 µM (inactive) throughout. The GI50 in the experiment with SK-MEL-28, in the experiment with SNB-19, with LOX IMVI, in the experiment with RXF 393, with SF-295 and with CAKI-1 was > 100 µM (inactive) throughout.

Consider `O=C(c1ccccc1O)c1cc(-c2ncc3c(=O)c4ccccc4oc3n2)c(-c2ccccc2O)[nH]c1=O`, for which the GI50 in the experiment with SNB-75 was 19.2 µM (inactive); in the experiment with HOP-92, 23.4 µM (inactive); in the experiment on HCT-15, 24.9 µM; with NCI/ADR-RES, 31.7 µM (inactive); in the experiment on CCRF-CEM, 26 µM (inactive); in the experiment with KM12, 30 µM (inactive). Moreover, the GI50 with HCT-116 was 20.7 µM (inactive); with OVCAR-4, 22.5 µM (inactive); in the experiment on OVCAR-8 it was 30.7 µM (inactive); in the experiment with IGROV-1, 26.9 µM (inactive); with HL-60, 24.9 µM (inactive); with SF-268 it was 22.5 µM (inactive). In addition, the GI50 in the experiment on SK-MEL-28 was 23.6 µM (inactive); in the experiment on SNB-19, 8.73 µM (inactive); in the experiment with LOX IMVI, 18.6 µM (inactive); with RXF 393 it was 23.4 µM (inactive); with SF-295, 11.4 µM (inactive); in the experiment on CAKI-1 it was 8.02 µM (inactive). The GI50 with RPMI-8226 is 20.1 µM (inactive).

With `CN1CCCOC(c2ccc([N+](=O)[O-])cc2)O1` (stereo not given), the GI50 was > 100 µM (inactive) with SNB-75; > 100 µM (inactive) in the experiment on HOP-92; above 100 µM with HCT-15; > 100 µM (inactive) with NCI/ADR-RES; > 100 µM (inactive) in the experiment with CCRF-CEM; > 100 µM (inactive) with KM12. Further, the GI50 with TK-10, in the experiment on HCT-116, in the experiment on OVCAR-4, in the experiment on OVCAR-8, in the experiment on IGROV-1 and with SF-268 was > 100 µM (inactive) in each case. The GI50 with SK-MEL-28, in the experiment on SNB-19, with LOX IMVI, in the experiment with RXF 393, with SF-295 and with CAKI-1 was > 100 µM (inactive) in each case.

As for `CC[C@@]12CCC(=S)N(CCSc3ccccc3)[C@@H]1c1c(n(S(=O)(=O)c3ccc(OC)cc3)c3ccccc13)CC2`, the GI50 in the experiment with SNB-75 is 46.3 µM (inactive); with HOP-92, 73.6 µM (inactive); with HCT-15, above 100 µM; in the experiment with NCI/ADR-RES, > 100 µM (inactive); in the experiment on CCRF-CEM it was > 100 µM (inactive); in the experiment with KM12, > 100 µM (inactive). The GI50 with TK-10 is 52 µM (inactive); with HCT-116, > 100 µM (inactive); with OVCAR-8, > 100 µM (inactive); in the experiment on IGROV-1, > 100 µM (inactive); in the experiment on HL-60, > 100 µM (inactive); in the experiment with SF-268 it was > 100 µM (inactive). The GI50 in the experiment on SK-MEL-28 was > 100 µM (inactive); in the experiment with SNB-19, 32.9 µM (inactive); in the experiment with LOX IMVI, > 100 µM (inactive); in the experiment on RXF 393, 24.1 µM (inactive); in the experiment with SF-295, > 100 µM (inactive); with CAKI-1, > 100 µM (inactive). Besides, in the experiment on RPMI-8226, the GI50 was > 100 µM (inactive).

In the case of `CCCCC1=NNC(=O)C1`, the GI50 was > 100 µM (inactive) in the experiment on SNB-75; > 100 µM (inactive) in the experiment with HOP-92; above 100 µM in the experiment on HCT-15; > 100 µM (inactive) in the experiment with NCI/ADR-RES; > 100 µM (inactive) in the experiment with CCRF-CEM; > 100 µM (inactive) with KM12. Also, the GI50 in the experiment on HCT-116, in the experiment on OVCAR-4, in the experiment on OVCAR-8, with IGROV-1, in the experiment with HL-60 and in the experiment on SK-MEL-28 was > 100 µM (inactive) throughout. In addition, the GI50 in the experiment with RXF 393, in the experiment with SF-295, in the experiment on CAKI-1 and with RPMI-8226 was > 100 µM (inactive) in each case.

Turning to `CCOC(=O)c1sc2nc(SC)nc3c2c1NCN3C`, the GI50 in the experiment with SNB-75 was 5.78 µM (inactive); with HOP-92, 11.5 µM (inactive); in the experiment on HCT-15, above 100 µM; in the experiment on NCI/ADR-RES, 19.6 µM (inactive); in the experiment with CCRF-CEM, > 100 µM (inactive); in the experiment with KM12, > 100 µM (inactive). The GI50 in the experiment with TK-10 is 25 µM (inactive); in the experiment on HCT-116, 22 µM (inactive); in the experiment with OVCAR-4, 20.4 µM (inactive); with OVCAR-8, 10.7 µM (inactive); in the experiment with IGROV-1, 13 µM (inactive); in the experiment with SF-268, 16.7 µM (inactive). Besides, the GI50 is > 100 µM (inactive) in the experiment with SK-MEL-28; 20.5 µM (inactive) with SNB-19; 36 µM (inactive) in the experiment with LOX IMVI; 13.2 µM (inactive) in the experiment on RXF 393; 27.9 µM (inactive) with SF-295; 22.5 µM (inactive) in the experiment on CAKI-1. In addition, the GI50 in the experiment on RPMI-8226 was > 100 µM (inactive).

For `Clc1ccc(Cc2nc3cc(Cl)c(Cl)cc3n2CC2CCCN3CCCCC23)cc1` (stereo not given), the GI50 with SNB-75 is 7.76 µM (inactive); in the experiment on HOP-92, 12.2 µM (inactive); with HCT-15 it was 10.7 µM; in the experiment with NCI/ADR-RES, 12.5 µM (inactive); with KM12 it was 6.59 µM (inactive); in the experiment with TK-10 it was 14.4 µM (inactive). Further, the GI50 in the experiment on HCT-116 was 9.68 µM (inactive); with OVCAR-4 it was 16.7 µM (inactive); in the experiment with OVCAR-8, 12.8 µM (inactive); with IGROV-1, 8.87 µM (inactive); in the experiment on HL-60, 5.55 µM (inactive); in the experiment on SF-268, 8.17 µM (inactive). Also, the GI50 is 6.93 µM (inactive) with SK-MEL-28; 13.9 µM (inactive) in the experiment on SNB-19; 5.6 µM (inactive) in the experiment on LOX IMVI; 13.8 µM (inactive) with RXF 393; 13.4 µM (inactive) with SF-295; 14.7 µM (inactive) in the experiment with CAKI-1. The GI50 in the experiment with RPMI-8226 is 24.5 µM (inactive).
